Measurements: ChEMBL document CHEMBL4507311, “Data for DCP probe A-1155463” (2021)

Columns and labels:
[1] = biological target: Serine/threonine-protein kinase tousled-like 2 (Homo sapiens) (UniProt Q86UE8); conditions: Compound concentration 1000.0 nM
[2] = biological target: Serine/threonine-protein kinase PRP4 homolog (Homo sapiens) (UniProt Q13523); conditions: Compound concentration 1000.0 nM
[3] = biological target: Casein kinase I isoform alpha (Homo sapiens) (UniProt P48729); conditions: Compound concentration 1000.0 nM
[4] = biological target: Mitogen-activated protein kinase kinase kinase 14 (Homo sapiens) (UniProt Q99558); conditions: Compound concentration 1000.0 nM
[5] = biological target: Mitogen-activated protein kinase kinase kinase kinase 1 (Homo sapiens) (UniProt Q92918); conditions: Compound concentration 1000.0 nM
[6] = biological target: Delta-type opioid receptor (Homo sapiens, UniProt P41143); conditions: Compound concentration 10.0 uM
[7] = biological target: Cyclin-dependent kinase 5 (Homo sapiens) (UniProt Q00535); conditions: Compound concentration 1000.0 nM
[8] = biological target: Membrane-associated tyrosine- and threonine-specific cdc2-inhibitory kinase (Homo sapiens) (UniProt Q99640); conditions: Compound concentration 1000.0 nM
[9] = biological target: D(1B) dopamine receptor (Homo sapiens) (UniProt P21918); conditions: Compound concentration 10.0 uM
[10] = biological target: Serine/threonine-protein kinase PAK 6 (Homo sapiens) (UniProt Q9NQU5); conditions: Compound concentration 1000.0 nM
[11] = biological target: Serine/threonine-protein kinase Nek6 (Homo sapiens) (UniProt Q9HC98); conditions: Compound concentration 1000.0 nM
[12] = biological target: Proto-oncogene tyrosine-protein kinase receptor Ret (Homo sapiens) (UniProt P07949); conditions: Compound concentration 1000.0 nM
[13] = tested on: Epidermal growth factor receptor (Homo sapiens), P00533 [UNDEFINED MUTATION]; conditions: Compound concentration 1000.0 nM
[14] = biological target: Mitogen-activated protein kinase 11 (Homo sapiens) (UniProt Q15759); conditions: Compound concentration 1000.0 nM
[15] = biological target: Phosphatidylinositol 4-phosphate 5-kinase type-1 alpha (Homo sapiens) (UniProt Q99755); conditions: Compound concentration 1000.0 nM
[16] = biological target: T1, Muscarinic acetylcholine receptor M2 (Homo sapiens) (UniProt P08172); conditions: Compound concentration 10.0 uM
T1 sequence (whole entry): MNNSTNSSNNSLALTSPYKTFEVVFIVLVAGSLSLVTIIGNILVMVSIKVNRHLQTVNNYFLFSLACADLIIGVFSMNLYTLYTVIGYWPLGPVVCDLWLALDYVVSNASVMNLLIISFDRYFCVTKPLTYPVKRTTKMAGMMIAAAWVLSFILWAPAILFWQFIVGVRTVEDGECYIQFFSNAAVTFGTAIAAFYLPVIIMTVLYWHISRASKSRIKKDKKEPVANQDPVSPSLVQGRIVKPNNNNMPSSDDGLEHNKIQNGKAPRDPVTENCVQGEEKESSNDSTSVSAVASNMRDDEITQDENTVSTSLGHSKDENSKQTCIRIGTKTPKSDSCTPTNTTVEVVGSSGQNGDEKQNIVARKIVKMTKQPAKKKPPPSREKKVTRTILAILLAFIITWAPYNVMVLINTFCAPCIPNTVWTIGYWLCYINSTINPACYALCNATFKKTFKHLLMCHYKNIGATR

[17] = biological target: Wee1-like protein kinase 2 (Homo sapiens) (UniProt P0C1S8); conditions: Compound concentration 1000.0 nM
[18] = biological target: Mitogen-activated protein kinase 10 (Homo sapiens) (UniProt P53779); conditions: Compound concentration 1000.0 nM
[19] = biological target: Serine/threonine-protein kinase 35 (Homo sapiens) (UniProt Q8TDR2); conditions: Compound concentration 1000.0 nM
[20] = biological target: 5-hydroxytryptamine receptor 1B (Homo sapiens) (UniProt P28222); conditions: Compound concentration 10.0 uM
[21] = tested on: Mast/stem cell growth factor receptor Kit (Homo sapiens), P10721 [L576P]; conditions: Compound concentration 1000.0 nM
[22] = biological target: Serine/threonine-protein kinase 26 (Homo sapiens) (UniProt Q9P289); conditions: Compound concentration 1000.0 nM
[23] = biological target: Serine/threonine-protein kinase pim-2 (Homo sapiens) (UniProt Q9P1W9); conditions: Compound concentration 1000.0 nM
[24] = biological target: T2, Alpha-2A adrenergic receptor (Homo sapiens) (UniProt P08913); conditions: Compound concentration 10.0 uM
T2 sequence (whole entry): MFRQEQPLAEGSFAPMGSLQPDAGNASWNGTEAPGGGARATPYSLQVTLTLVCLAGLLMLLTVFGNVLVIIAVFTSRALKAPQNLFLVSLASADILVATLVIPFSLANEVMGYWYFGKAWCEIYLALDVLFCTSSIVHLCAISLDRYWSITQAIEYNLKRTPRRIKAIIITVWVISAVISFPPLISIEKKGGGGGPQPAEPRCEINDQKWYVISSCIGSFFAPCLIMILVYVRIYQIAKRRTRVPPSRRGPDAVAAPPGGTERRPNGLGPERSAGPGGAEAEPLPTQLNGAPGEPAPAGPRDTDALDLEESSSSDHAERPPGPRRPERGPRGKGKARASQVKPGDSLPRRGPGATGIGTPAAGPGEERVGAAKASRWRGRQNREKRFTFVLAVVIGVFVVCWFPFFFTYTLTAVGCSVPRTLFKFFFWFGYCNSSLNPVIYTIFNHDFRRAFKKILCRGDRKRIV

[25] = biological target: Dual serine/threonine and tyrosine protein kinase (Homo sapiens) (UniProt Q6XUX3); conditions: Compound concentration 1000.0 nM
[26] = biological target: Tyrosine-protein kinase ABL1 (Homo sapiens) (UniProt P00519); conditions: Compound concentration 1000.0 nM
[27] = biological target: Calcium/calmodulin-dependent protein kinase type II subunit alpha (Homo sapiens) (UniProt Q9UQM7); conditions: Compound concentration 1000.0 nM
[28] = biological target: Mitogen-activated protein kinase kinase kinase 20 (Homo sapiens) (UniProt Q9NYL2); conditions: Compound concentration 1000.0 nM
[29] = biological target: Ribosomal protein S6 kinase alpha-3 (Homo sapiens) (UniProt P51812); conditions: Compound concentration 1000.0 nM
[30] = biological target: Histamine H2 receptor (Homo sapiens) (UniProt P25021); conditions: Compound concentration 10.0 uM
[31] = biological target: Phosphorylase b kinase regulatory subunit alpha, liver isoform (Homo sapiens) (UniProt P46019); conditions: Compound concentration 1000.0 nM
[32] = biological target: Mitogen-activated protein kinase kinase kinase kinase 2 (Homo sapiens) (UniProt Q12851); conditions: Compound concentration 1000.0 nM

Sequence of Casein kinase I isoform alpha (Homo sapiens) (P48729 2-337 limits assumed): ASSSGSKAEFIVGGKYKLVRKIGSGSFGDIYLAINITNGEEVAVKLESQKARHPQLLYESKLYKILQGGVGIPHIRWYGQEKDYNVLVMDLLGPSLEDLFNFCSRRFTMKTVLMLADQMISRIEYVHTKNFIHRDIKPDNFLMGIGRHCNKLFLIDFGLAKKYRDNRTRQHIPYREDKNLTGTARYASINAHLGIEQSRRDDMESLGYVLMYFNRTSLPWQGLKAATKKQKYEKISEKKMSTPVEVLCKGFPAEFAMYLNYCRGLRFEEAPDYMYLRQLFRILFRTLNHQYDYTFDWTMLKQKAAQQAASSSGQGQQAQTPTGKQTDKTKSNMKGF
Sequence of D(1B) dopamine receptor (Homo sapiens) (P21918 whole entry): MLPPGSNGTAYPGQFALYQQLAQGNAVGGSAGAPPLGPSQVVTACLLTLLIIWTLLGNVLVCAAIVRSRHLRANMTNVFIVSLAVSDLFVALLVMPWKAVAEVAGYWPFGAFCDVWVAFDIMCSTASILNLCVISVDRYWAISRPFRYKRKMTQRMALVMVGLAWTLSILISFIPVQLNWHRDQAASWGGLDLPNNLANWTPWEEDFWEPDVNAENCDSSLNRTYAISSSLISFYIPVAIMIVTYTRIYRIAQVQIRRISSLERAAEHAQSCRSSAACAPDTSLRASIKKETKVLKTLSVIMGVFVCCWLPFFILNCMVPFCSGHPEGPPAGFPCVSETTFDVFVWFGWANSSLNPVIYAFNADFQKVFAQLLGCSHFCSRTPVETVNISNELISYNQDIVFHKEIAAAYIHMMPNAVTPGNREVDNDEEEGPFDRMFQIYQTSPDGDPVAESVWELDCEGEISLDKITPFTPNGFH
Sequence of Mitogen-activated protein kinase kinase kinase 14 (Homo sapiens) (Q99558 whole entry, looked up): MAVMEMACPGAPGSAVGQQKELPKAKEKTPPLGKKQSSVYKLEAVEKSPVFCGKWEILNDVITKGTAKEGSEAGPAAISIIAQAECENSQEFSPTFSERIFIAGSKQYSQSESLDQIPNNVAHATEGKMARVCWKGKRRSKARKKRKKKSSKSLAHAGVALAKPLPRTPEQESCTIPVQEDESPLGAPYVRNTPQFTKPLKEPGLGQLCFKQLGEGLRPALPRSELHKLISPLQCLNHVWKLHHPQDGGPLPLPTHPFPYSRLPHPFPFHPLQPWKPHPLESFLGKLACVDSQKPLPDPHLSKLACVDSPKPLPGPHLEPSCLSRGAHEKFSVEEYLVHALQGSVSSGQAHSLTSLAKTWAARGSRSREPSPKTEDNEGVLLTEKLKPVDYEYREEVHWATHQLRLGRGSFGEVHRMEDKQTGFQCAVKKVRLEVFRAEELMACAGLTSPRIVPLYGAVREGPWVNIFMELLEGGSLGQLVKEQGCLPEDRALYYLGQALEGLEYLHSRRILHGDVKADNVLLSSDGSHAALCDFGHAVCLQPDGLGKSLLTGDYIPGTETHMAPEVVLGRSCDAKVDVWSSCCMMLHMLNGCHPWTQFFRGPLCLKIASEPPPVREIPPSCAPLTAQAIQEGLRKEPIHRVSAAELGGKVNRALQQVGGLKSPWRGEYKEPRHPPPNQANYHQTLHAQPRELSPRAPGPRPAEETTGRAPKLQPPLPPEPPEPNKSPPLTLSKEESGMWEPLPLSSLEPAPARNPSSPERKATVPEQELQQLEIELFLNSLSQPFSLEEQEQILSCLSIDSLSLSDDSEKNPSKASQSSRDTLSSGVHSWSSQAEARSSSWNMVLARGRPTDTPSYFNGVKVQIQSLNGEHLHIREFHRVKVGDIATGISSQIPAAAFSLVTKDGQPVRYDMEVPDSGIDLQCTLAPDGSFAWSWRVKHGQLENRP
Sequence of Dual serine/threonine and tyrosine protein kinase (Homo sapiens) (Q6XUX3 whole entry): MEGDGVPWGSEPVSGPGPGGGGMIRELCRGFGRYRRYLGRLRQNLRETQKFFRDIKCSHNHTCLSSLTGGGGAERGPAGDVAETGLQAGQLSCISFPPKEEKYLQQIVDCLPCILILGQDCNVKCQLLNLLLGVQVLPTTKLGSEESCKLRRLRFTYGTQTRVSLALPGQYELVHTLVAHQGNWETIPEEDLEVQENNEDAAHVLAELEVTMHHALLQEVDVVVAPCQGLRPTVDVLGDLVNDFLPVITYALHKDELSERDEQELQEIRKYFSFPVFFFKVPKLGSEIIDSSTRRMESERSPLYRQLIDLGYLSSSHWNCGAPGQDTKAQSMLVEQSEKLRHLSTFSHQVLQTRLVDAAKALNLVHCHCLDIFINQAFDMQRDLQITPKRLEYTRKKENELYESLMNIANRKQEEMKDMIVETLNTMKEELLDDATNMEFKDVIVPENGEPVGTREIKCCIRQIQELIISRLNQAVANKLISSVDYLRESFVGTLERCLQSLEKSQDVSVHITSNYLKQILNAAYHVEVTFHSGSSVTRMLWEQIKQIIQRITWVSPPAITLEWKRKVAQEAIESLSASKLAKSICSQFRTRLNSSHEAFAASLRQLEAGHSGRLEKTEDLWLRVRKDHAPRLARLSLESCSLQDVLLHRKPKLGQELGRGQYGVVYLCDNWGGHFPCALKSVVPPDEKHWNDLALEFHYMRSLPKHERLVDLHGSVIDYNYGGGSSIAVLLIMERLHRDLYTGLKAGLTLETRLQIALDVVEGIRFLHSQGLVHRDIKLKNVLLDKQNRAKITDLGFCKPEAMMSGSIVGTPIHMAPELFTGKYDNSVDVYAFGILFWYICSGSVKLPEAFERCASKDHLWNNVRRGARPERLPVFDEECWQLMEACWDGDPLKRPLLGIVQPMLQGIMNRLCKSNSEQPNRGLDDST
Sequence of Mitogen-activated protein kinase 10 (Homo sapiens) (P53779 whole entry): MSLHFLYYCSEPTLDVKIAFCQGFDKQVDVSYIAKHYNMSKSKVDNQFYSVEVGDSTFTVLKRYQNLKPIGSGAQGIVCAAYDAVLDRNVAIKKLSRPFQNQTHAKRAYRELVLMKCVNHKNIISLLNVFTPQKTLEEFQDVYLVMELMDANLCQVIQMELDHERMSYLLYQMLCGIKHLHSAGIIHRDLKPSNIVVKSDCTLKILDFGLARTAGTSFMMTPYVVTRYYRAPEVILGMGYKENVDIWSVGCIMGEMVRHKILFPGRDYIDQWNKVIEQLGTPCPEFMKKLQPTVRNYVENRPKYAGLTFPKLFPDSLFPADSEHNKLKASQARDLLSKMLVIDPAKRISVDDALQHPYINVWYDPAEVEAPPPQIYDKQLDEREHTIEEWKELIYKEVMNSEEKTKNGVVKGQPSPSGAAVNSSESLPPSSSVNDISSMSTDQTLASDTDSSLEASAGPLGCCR
Sequence of Ribosomal protein S6 kinase alpha-3 (Homo sapiens) (P51812 whole entry): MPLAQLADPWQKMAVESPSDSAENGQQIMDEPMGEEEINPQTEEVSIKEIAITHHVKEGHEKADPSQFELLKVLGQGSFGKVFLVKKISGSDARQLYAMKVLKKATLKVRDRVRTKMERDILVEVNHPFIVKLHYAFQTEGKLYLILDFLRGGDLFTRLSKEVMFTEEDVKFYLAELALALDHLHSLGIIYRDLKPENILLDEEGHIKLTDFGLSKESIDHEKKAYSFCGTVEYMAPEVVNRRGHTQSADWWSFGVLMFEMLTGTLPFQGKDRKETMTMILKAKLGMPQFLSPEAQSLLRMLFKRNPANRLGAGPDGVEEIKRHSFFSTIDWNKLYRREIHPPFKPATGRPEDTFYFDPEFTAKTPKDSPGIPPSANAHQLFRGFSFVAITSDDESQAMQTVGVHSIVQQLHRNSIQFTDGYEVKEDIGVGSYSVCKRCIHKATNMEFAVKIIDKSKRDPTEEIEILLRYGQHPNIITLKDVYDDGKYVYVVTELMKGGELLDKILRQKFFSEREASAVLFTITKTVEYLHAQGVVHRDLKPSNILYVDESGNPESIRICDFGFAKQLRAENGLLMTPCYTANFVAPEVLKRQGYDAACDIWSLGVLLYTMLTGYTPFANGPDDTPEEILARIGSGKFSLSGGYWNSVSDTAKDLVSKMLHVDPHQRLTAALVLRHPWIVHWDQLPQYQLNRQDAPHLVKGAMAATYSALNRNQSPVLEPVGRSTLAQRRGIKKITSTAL
Sequence of Proto-oncogene tyrosine-protein kinase receptor Ret (Homo sapiens) (P07949 whole entry): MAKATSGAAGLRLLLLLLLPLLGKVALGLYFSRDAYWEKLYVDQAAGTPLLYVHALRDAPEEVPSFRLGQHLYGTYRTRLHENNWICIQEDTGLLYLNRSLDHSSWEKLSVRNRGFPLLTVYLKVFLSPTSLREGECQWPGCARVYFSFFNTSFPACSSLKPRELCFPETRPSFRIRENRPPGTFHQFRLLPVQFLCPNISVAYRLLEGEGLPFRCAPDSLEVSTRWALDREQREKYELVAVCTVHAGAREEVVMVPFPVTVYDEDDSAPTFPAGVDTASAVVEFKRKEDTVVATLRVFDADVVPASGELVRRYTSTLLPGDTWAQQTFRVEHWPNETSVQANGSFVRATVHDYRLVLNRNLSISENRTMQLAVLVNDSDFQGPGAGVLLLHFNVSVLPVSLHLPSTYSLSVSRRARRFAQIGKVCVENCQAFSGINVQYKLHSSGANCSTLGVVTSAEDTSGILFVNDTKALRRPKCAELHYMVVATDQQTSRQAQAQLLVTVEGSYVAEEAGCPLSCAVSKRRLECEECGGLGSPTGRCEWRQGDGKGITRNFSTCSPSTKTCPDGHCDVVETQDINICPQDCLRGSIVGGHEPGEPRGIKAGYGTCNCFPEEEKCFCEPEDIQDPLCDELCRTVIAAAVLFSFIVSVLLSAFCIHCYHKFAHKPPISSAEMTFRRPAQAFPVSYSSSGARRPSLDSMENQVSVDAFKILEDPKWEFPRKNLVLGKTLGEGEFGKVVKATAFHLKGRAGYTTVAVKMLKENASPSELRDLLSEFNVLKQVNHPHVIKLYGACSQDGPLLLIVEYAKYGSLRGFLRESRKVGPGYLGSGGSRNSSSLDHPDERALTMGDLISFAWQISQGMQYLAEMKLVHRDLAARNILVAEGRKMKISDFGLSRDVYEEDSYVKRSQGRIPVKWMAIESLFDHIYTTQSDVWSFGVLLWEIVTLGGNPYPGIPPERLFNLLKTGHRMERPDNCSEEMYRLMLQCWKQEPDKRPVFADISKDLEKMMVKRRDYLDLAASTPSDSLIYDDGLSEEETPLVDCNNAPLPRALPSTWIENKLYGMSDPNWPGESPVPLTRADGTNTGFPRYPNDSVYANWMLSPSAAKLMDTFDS

CN(C)CC#Cc1ccc(OCCCc2sc(N3CCc4cccc(C(=O)Nc5nc6ccccc6s5)c4C3)nc2C(=O)O)c(F)c1 [A-1155463]
residual activity [1]: 100%
residual activity [2]: 100%
residual activity [3]: 71%
residual activity [4]: 100%
residual activity [5]: 93%
inhibition [6]: 54.6%
residual activity [7]: 100%
residual activity [8]: 71%
inhibition [9]: 40.8%
residual activity [10]: 100%
residual activity [11]: 100%
residual activity [12]: 100%
residual activity [13]: 89%
residual activity [14]: 100%
residual activity [15]: 100%
inhibition [16]: 34.7%
residual activity [17]: 100%
residual activity [18]: 71%
residual activity [19]: 86%
inhibition [20]: 20.2%
residual activity [21]: 95%
residual activity [22]: 80%
residual activity [23]: 100%
inhibition [24]: 7.32%
residual activity [25]: 100%
residual activity [26]: 93%
residual activity [27]: 64%
residual activity [28]: 100%
residual activity [29]: 100%
inhibition [30]: 23.2%
residual activity [31]: 100%
residual activity [32]: 100%
